Test results from ChEMBL document CHEMBL1201862, “PubChem BioAssay data set” (2004).
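Each compound was tested at five concentrations against cells in 96-well plates for 48 hours. At the GI50, growth is halved.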 Calls of active or inactive are those of the source. No stated cut-off is given here; in the data, active = GI50 up to about 1.1 µM and inactive = higher.

Experiments:
Experiment in all cases: inhibition of tumour cell growth, NCI panel, 48 h
CAKI-1 = system: CAKI-1
SW-620 = system: SW-620
HOP-62 = system: HOP-62
SN12C = system: SN12C
NCI-H460 = system: NCI-H460
HOP-92 = system: HOP-92
RXF 393 = system: RXF 393
Hs-578T = system: Hs-578T
HT-29 = system: HT-29
IGROV-1 = system: IGROV-1
OVCAR-8 = system: OVCAR-8
SK-MEL-5 = system: SK-MEL-5
ACHN = system: ACHN
A549 = system: A549
U-251 = system: U-251
RPMI-8226 = system: RPMI-8226
SR = system: SR
MOLT-4 = system: MOLT-4
SF-539 = system: SF-539

Measured: GI50

CCCCCC(=O)OCC1(CO)C/C(=C/CC(C(C)C)C(C)C)C(=O)O1 (stereo not given)
inactive: CAKI-1 19.9 µM | SW-620 25.2 µM | HOP-62 38.7 µM | SN12C 30.5 µM | NCI-H460 24.8 µM | HOP-92 27 µM | RXF 393 > 75 µM | Hs-578T 33.3 µM | HT-29 38.6 µM | IGROV-1 17.8 µM | OVCAR-8 21.9 µM | SK-MEL-5 48.8 µM | ACHN 58.5 µM | A549 51.1 µM | U-251 44.4 µM

CCOC(=O)c1cn(-c2ccccc2)c(=S)n2c1nc1ccccc12
inactive: CAKI-1 49 µM | SW-620 52.6 µM | HOP-62 53.2 µM | RPMI-8226 18.1 µM | SN12C > 70.1 µM | NCI-H460 61.4 µM | HOP-92 13.9 µM | RXF 393 54.8 µM | HT-29 30.5 µM | IGROV-1 42.5 µM | OVCAR-8 24.4 µM | SR 13.6 µM | MOLT-4 4.65 µM | SK-MEL-5 23.1 µM | ACHN 56.1 µM | SF-539 32.7 µM | A549 42.9 µM | U-251 58.5 µM

COc1ccccc1-c1cc(O)c2cc3c(cc2n1)OCO3
inactive: SW-620 17.7 µM | HOP-62 14.3 µM | RPMI-8226 38.5 µM | SN12C 45.2 µM | NCI-H460 30.3 µM | HT-29 28.4 µM | IGROV-1 35.2 µM | OVCAR-8 28.3 µM | SR 29.3 µM | MOLT-4 23.2 µM | SK-MEL-5 5.19 µM | ACHN 83.8 µM | SF-539 25.1 µM | A549 35.6 µM | U-251 > 100 µM

CN(C)Cc1[nH]c2ccccc2c1C(=O)c1ccccc1
inactive: CAKI-1 > 100 µM | SW-620 > 100 µM | HOP-62 33 µM | RPMI-8226 66.2 µM | NCI-H460 > 100 µM | HOP-92 33 µM | HT-29 > 100 µM | IGROV-1 > 100 µM | OVCAR-8 > 100 µM | SR 88.3 µM | MOLT-4 > 100 µM | SK-MEL-5 58.1 µM | ACHN > 100 µM | SF-539 > 100 µM | A549 > 100 µM | U-251 > 100 µM

CC(=O)O[C@H]1C[C@@H](OC(C)=O)[C@@](C)(O)[C@@H]2[C@@H](OC(C)=O)[C@@]3(O)[C@H](/C=C(/CCl)[C@H]4O[C@H]4[C@@H](OC(C)=O)[C@@]12C)OC(=O)[C@@H]3C
inactive: CAKI-1 > 25 µM | SW-620 > 25 µM | HOP-62 > 25 µM | RPMI-8226 9.89 µM | SN12C > 25 µM | NCI-H460 > 25 µM | HOP-92 > 25 µM | RXF 393 19.8 µM | Hs-578T > 25 µM | HT-29 > 25 µM | IGROV-1 > 25 µM | OVCAR-8 > 25 µM | MOLT-4 > 25 µM | SK-MEL-5 22.3 µM | ACHN > 25 µM | A549 > 25 µM | U-251 > 25 µM

CCNc1nc(N)c(C(=O)c2ccc(Cl)cc2)s1
inactive: SW-620 31.2 µM | HOP-62 44.2 µM | RPMI-8226 30.3 µM | SN12C 49.7 µM | NCI-H460 18.8 µM | HOP-92 > 100 µM | RXF 393 22 µM | Hs-578T 4.86 µM | HT-29 27 µM | IGROV-1 25.1 µM | MOLT-4 27.4 µM | SK-MEL-5 27.7 µM | ACHN 23.7 µM | SF-539 33 µM | A549 20.7 µM | U-251 36.7 µM

O=C1C(C(c2ccccc2)N2CCOCC2)=C(O)C(c2ccccc2)N1c1ccccc1 (stereo not given)
inactive: CAKI-1 > 10 µM | SW-620 > 10 µM | HOP-62 > 10 µM | RPMI-8226 > 10 µM | SN12C > 10 µM | NCI-H460 > 10 µM | RXF 393 > 10 µM | Hs-578T > 10 µM | HT-29 > 10 µM | IGROV-1 > 10 µM | OVCAR-8 > 10 µM | MOLT-4 4.31 µM | SK-MEL-5 > 10 µM | ACHN > 10 µM | SF-539 > 10 µM | A549 > 10 µM | U-251 > 10 µM

N#CCCCCC12C3C(=O)N(c4ccccc4)C(=O)C3ON1O[C@@H]1C(=O)N(c3ccccc3)C(=O)[C@@H]12 (stereo not given in full)
inactive: CAKI-1 > 100 µM | SW-620 > 100 µM | HOP-62 > 100 µM | SN12C > 100 µM | NCI-H460 > 100 µM | HOP-92 > 100 µM | Hs-578T > 100 µM | HT-29 > 100 µM | IGROV-1 > 100 µM | OVCAR-8 > 100 µM | MOLT-4 > 100 µM | SK-MEL-5 > 100 µM | ACHN > 100 µM | SF-539 > 100 µM | A549 > 100 µM | U-251 > 100 µM
